{"source": "patent US20070036809A1", "about": "“Tolerance-induced targeted antibody production” (priority 2003, published 2007)", "key": {"BMRPA1 cells": {"tested_on": "BMRPA1 cells", "assay": "NNK exposure of BMRPA1 cells, morphology", "assay_type": "cell-based, rat", "conditions": "one 16 hour exposure", "description": "NNK Exposures: All preparations of the carcinogen-containing media were made in a separate laboratory within a NCI-designed and certified chemical hood using prescribed protective measures. NNK (American Health Foundation, N.Y.) was prepared as a stock solution of 10 mg NNK in PBS and added to FBS-free cRPMI to make final concentrations of 100, 50, 10, 5, and 1 μg/ml. BMRPA1 cells at passage 36 (p36) were seeded at 10^5/60 mm TCDs and allowed to grow for 6 d. At this time the medium was removed, and the cells were washed 2× with prewarmed (37° C.), FBS-free cRPMI before they were treated with FBS-free cRPMI (4 ml/TCD) containing the different concentrations of NNK. A 6th set of TCDs containing BMRPA1 cells was incubated in FBS-free cRPMI without NNK and was used as controls. The eight TCDs used for each of the six sets of different culture conditions were returned to the 37° C. and 95% air-5% CO2 incubator. After 16 h, the NNK-containing medium was removed from all TCDs and the cells were washed 3× with PBS followed by addition of fresh cRPMI-10% FBS (4 ml/TCD), and the incubation continued. Control cultures without NNK were processed in parallel. The cells were fed every 2 d by replacing ½ of the spent medium with fresh cRPMI-10% FBS. At full confluency the cells were collected from all TCDs, the cells in each group were pooled, and passaged at 2×10^4 into fresh TCDs."}}}
{"smiles": "CN(CCCC(=O)c1cccnc1)N=O", "note": "[NNK, 4-(methyl-nitrosamino)-1-(3-pyridyl)-1 butanone]", "values": [{"measurement": "Phenotypical changes of neoplastic transformation", "setting": "BMRPA1 cells; 1 μg/ml NNK", "value": "phenotypical changes characteristic of neoplastic transformation but at a slower rate, over several weeks"}, {"measurement": "Cytotoxic changes", "setting": "BMRPA1 cells; 5 and 1 μg NNK/mL", "value": "observed considerably less"}, {"measurement": "Appearance of phenotypical changes indicative of neoplastic transformation", "setting": "BMRPA1 cells; 100, 50, 10 μg NNK/ml", "value": "within a week"}, {"measurement": "Cytotoxic changes", "setting": "BMRPA1 cells; larger concentrations of NNK (100, 50, 10 μg NNK/mL), serum free medium", "value": "cytotoxic changes consisting of poorly attached, degenerating, dying cells, and slowed cell growth"}]}
{"smiles": "O=P1(N(CCCl)CCCl)NCCCO1", "note": "(stereo not drawn) [cyclophosphamide]", "values": [{"measurement": "Immunosuppression of antibody titer to BMRPA1 cells (Cell-EIA with sera)", "setting": "BMRPA1 antigens; 3 injections of BMRPA1 cells, then cyclophosphamide i.p. for 5 days, 60 μg/day/g body weight", "value": "strong immunosuppression"}, {"measurement": "Staining of rat pancreatic tissue by sera of BMRPA1 immunized, cyclophosphamide-treated mice", "setting": "BMRPA1 antigens; immunohistochemistry on rat pancreas", "value": "virtually no staining"}]}
